Measured values published in patent US20050124607A1, “5-Substituted quinazolinone compounds useful as alpha 1A/B adrenergic receptor antagonists” (priority 2003, published 2005).

Test system: hypogastric nerve stimulation-induced increases in intraurethral pressure and phenylephrine-induced increases in diastolic blood pressure
Assay: In vivo intraurethral and blood pressure assay in anesthetized dog
Details: anesthetized male mongrel dog, i.v. bolus, increasing doses
Experimental: The following describes an in vivo assay for measuring the relative effect of test compounds on hypogastric nerve stimulation-induced increases in intraurethral pressure and phenylephrine-induced increases in diastolic blood pressure in anesthetized dog.
Male Mongrel dogs (10 to 20 kg) were-fasted for 12 to 18 hours and anesthetized with phenobarbital sodium (36 mg/kg, i.v.). An endotracheal tube was inserted and thereafter the lungs were mechanically ventilated with room air. The right femoral vein was isolated and cannulated with two polyethylene cannulae, one for the administration of a continuous infusion of phenobarbital sodium (5 to 10 mg/kg/hr) and the other for bolus administration of test substances. The right femoral artery was isolated and cannulated to the abdominal aorta with a fluid filled polyethylene cannula connected to an external pressure transducer for monitoring diastolic aortic pressure (DAP). The bladder was exposed via a ventral midline abdominal incision and emptied of urine through a 22 gauge needle. The bladder was cannulated through a stab incision with a water filled balloon catheter connected to an external pressure transducer for monitoring prostatic intraurethral pressure (IUP). The right hypogastric nerve (HGN) was carefully isolated and attached to a Dastre's electrode for nerve stimulation. […]

## COc1cc2nc(N3CCN(C(=O)c4ccco4)CC3)nc(N)c2cc1OC [prazosin]
  inhibition of HGN stimulation-induced increases in IUP and PE-induced increases in DAP: inhibited increases in IUP and DAP in similar fashion
